Test results reported in patent US12396961B2, “Compounds and compositions for intracellular delivery of agents” (ModernaTX, Inc., priority 2015, dated 2025).
Where two headings read alike, the source gives them in different places.

Assays:
hEPO mRNA expression [1] = experiment: Expression of hEPO after intravenous administration to rats; type: in vivo; settings: hEPO expression relative to MC3, S.D. rats, intravenous
Experimental: PBS (phosphate buffered saline) is used as control.
Formulations were prepared according to Table 5 and included mRNA encoding hEPO.
[…] After the 48 hour time point, livers and spleens were harvested and frozen.

hEPO mRNA expression [2] = experiment: Expression of hEPO in mice (CD-1); type: in vivo, CD-1 mice; settings: hEPO expression relative to MC3, CD-1 mice
Source text: FIG. 12 is a set of graphs illustrating hEPO expression levels in CD-1 mice dosed with compounds of the disclosure, compared to MC3. PBS is used as control. […] In graphs A-C numbers 1-14 refer to compositions containing the following: 1: Compound 73, 2: Compound 80, 3: Compound 70; 4: Compound 81; 5: Compound 69; 6: Compound 82; 7: Compound 83; 8: Compound 62; 9: Compound 84; 10: Compound 85; 11: Compound 86; 12: Compound 87; 13: MC3; 14: PBS.
FIG. 13 is a graph showing hEPO levels (pg/mL) in CD-1 mice up to −25 h after administration of a nanoparticle composition containing compounds of the disclosure, compared to a composition containing MC3. Numbers 1-13 refer to compositions containing the following: 1: Compound 73, 2: Compound 80, 3: Compound 70; 4: Compound 81; 5: Compound 69; 6: Compound 82; 7: Compound 83; 8: Compound 62; 9: Compound 84; 10: Compound 85; 11: Compound 86; 12: Compound 87; 13: MC3. […]

[3] = Lipid levels (clearance) in liver and spleen 48 hours after administration; type: in vivo, rats; settings: for concentration at 48 h: Sprague-Dawley, rat, intravenous
Experimental: Formulations were administered intravenously to rats (n=3 or 6) at a dosage of 0.2 mg/kg or 0.5 mg/kg (mpk) and hEPO levels measured at 3, 6, and 24 hour time points. After the 48 hour time point, livers and spleens were harvested and frozen.
The amount of lipid in the liver and spleen 48 hours after administration of a nanoparticle composition was also measured. […] In contrast, approximately 60% of doses including MC3 or Compound 22 remained in the liver after 48 hours. Less than 3% of the dose remained in the spleen for each composition tested.

[4] = Particle size and polydispersity index (Zetasizer Nano ZS); type: physicochemical; settings: Table 1; DOPE 40:20:38.5:1.5, Luc mRNA
Method in brief: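 Particle size and polydispersity index were measured by dynamic light scattering on a Zetasizer Nano ZS in 1×PBS. Zeta potential was measured in 15 mM PBS.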

[5] = tested on: luciferase (Luc) mRNA expression; experiment: Luc expression (AUC) in CD-1 mice relative to MC3; type: in vivo; settings: for Lipid/MC3 Luc CD-1 (mice): Luc expression relative to MC3, CD-1 mice; for Liver/Spleen Ratio / Lipid/MC3 AUC: Table 7c; for Lipid/MC3 AUC: AUC relative to MC3
Experimental: FIG. 15 is a graph summarizing luciferase expression levels at 6 h after administration of nanoparticle compositions containing compounds of the disclosure to CD-1 mice at a dose of 0.5 mpk. Total light flux values were acquired via body luminescent imaging (BLI) 6 h after administration. In this Figure, the numbers 1-7 and 10 refer to the compositions containing Compounds 4-10 and MC3 respectively.
In contrast, hEPO expression in rats induced by administration of nanoparticle composition including compound according to one of formulae (I), (Ia1)-(Ia6), (Ib), (II), (IIa), (III), and (IIIa) was substantially lower than that measured for MC3. […] Table 7c and 7d show additional protein expressions and clearance data from compositions with various compounds disclosed herein as compared to with MC3.

[6] = tested on: LDLr mRNA / Luc expression; experiment: Expression (AUC) in LDLr−/− mice relative to KL22; type: in vivo; settings: Table 7b
[7] = tested on: luciferase (Luc) mRNA expression; experiment: Expression of Luc in different organs (liver, lung, spleen, femur) 6 hours after intravenous administration; type: in vivo; settings: mice i.v. 0.5 mpk
Experimental: The efficacy of the nanoparticle compositions presented in Tables 1, la, 17-1, 19-1, 20-1 and 21-1 was further evaluated by measuring the expression of modified luciferase in the liver, lung, spleen, and femur upon administration of a given composition. Formulations were administered intravenously to mice (n=3) at a dosage of 0.5 mpk and bioluminescence measured after 6 hours. The standard MC3 formulation and a PBS control were also tested.

[8] = Lipid clearance: % dose remaining in mice (liver) 6 h and 24 h after administration of nanoparticle compositions; type: in vivo, CD-1 mice; settings: Table 7c, species not given

Structure (SMILES) | Liver/Spleen Ratio [5] | Lipid/MC3 AUC [5] | % Dose Remaining 24 hr [8] | other results
CCCCCCCCCCCCN(CCCCCCCCCCCC)CCN(CCCCCCCCCCCC)CCN1CCN(CCN(CCCCCCCCC)CCCCCCCCC)CC1 [23 (DOPE)] | – | – | – | Lipid/MC3 hEPO S.D. (rats) (hEPO mRNA expression [1]): 0.21; Lipid/MC3 hEPO CD-1 (mice) (hEPO mRNA expression [2]): 2.4; concentration at 48 h ([3]; liver, 48 hours after administration, read-out: Lipid in liver): 32900 ng/g; concentration at 48 h ([3]; spleen, 48 hours after administration, read-out: Lipid in spleen): 26100 ng/g; % remaining dose in liver ([3]; liver, 48 hours after administration): 51.4%; % remaining dose in spleen ([3]; spleen, 48 hours after administration): 2.72%
CCCCCCCCCCCCN(CCCCCCCCCCCC)CCN(CCCCCCCCC)CC(=O)N1CCN(C(=O)CN(CCCCCCCCCCCC)CCCCCCCCCCCC)CC1 [Compound 10, 2-(Didodecylamino)-1-(4-(N-(2-(didodecylamino)ethyl)-N-nonylglycyl)piperazin-1-yl)ethan-1-one] | – | – | – | PDI [4]: 0.130; Lipid/MC3 AUC CD-1 mice 0.5 mpk ([5]; Table 7b, Luc expression, CD-1 mice, 0.5 mpk): 1.14; Lipid/KL22 AUC LDLr−/− mice 0.5 mpk, LDLr [6]: 0.71
CCCCCCCCCCCCCCN(CCCCCCCCCCCCCC)CCN1CCN(CCN(CCCCCCCCC)CCN(CCCCCCCCC)CCCCCCCCC)CC1 [Compound 20, N^1-(2-(4-(2-(Ditetradecylamino)ethyl)piperazin-1-yl)ethyl)-N^1,N^2,N^2-trinonylethane-1,2-diamine] | – | – | – | PDI [4]: 0.150; Total flux in organs, comparison in words over the organs of the table named [7]: highest total flux; Lipid/MC3 Luc CD-1 (mice) [5]: 5.0
CCCCC/C=C\C/C=C\CCCCCCCCC1(CCCCCCCC/C=C\C/C=C\CCCCC)CC(OC(=O)CCCN(C)C)C1 [Compound 21-2, 3,3-Di((9Z,12Z)-octadeca-9,12-dien-1-yl)cyclobutyl 4-(dimethylamino)butanoate] | – | – | – | Total flux in organs, comparison in words over the organs of the table named [7]: lowest expression in each organ
CCCCC/C=C\C/C=C\CCCCCCCCC1(CCCCCCCC/C=C\C/C=C\CCCCC)CCC(OC(=O)CCCN(C)C)C1 (stereo not drawn) [Compound 21-4, 3,3-Di((9Z,12Z)-octadeca-9,12-dien-1-yl)cyclopentyl 4-(dimethylamino)butanoate] | – | – | – | Total flux in organs, comparison in words over the organs of the table named [7]: lowest expression in each organ
CCCCCCCCCN(CCCCCCCCC)CCN(CCCCCCCCC)CC(=O)N1CCN(C(=O)CN(CCCCCCCCC)CCCC(=O)OCCCCC)CC1 [Compound 45, Pentyl 4-((2-(4-(N-(2-(dinonylamino)ethyl)-N-nonylglycyl)piperazin-1-yl)-2-oxoethyl)(nonyl)amino)butanoate] | – | – | – | PDI [4]: 0.200; Lipid/MC3 Luc CD-1 (mice) [5]: 6.50; % dose remaining Rat liver (48 h) [3]: 8.57%
CCCCCCCCCN(CCCCCCCCC)CCC1CCN(C(=O)CN(CCCCCCCCC)CCN(CCCCCCCCC)CCCCCCCCC)CC1 [Compound 49, 2-((2-(Dinonylamino)ethyl)(nonyl)amino)-1-(4-(2-(dinonylamino)ethyl)piperidin-1-yl)ethan-1-one] | – | – | – | PDI [4]: 0.200; Lipid/MC3 Luc CD-1 (mice) [5]: 5.23; % dose remaining Rat liver (48 h) [3]: 38.45%
CCCCCCCCCN(CCCCCCCCC)CCN(CCCCCCCCC)CC(=O)N1CCN(C(=O)CN(CCCCCCCCC)CCCCCCC(=O)OCC)CC1 [Compound 53, Ethyl 7-((2-(4-(N-(2-(dinonylamino)ethyl)-N-nonylglycyl)piperazin-1-yl)-2-oxoethyl)(nonyl)amino)heptanoate] | 17 | 0.07 | 0.77% | –
CCCCCCCCCN(CCCCCCCCC)CCN(CCCCCCCCC)CC(=O)N1CCN(C(=O)CN(CCCCCCCCC)CCCCC(=O)OCCCC)CC1 [Compound 55, Butyl 5-((2-(4-(N-(2-(dinonylamino)ethyl)-N-nonylglycyl)piperazin-1-yl)-2-oxoethyl)(nonyl)amino)pentanoate] | 9 | 0.14 | 1.60% | –
CCCCCCCCCN(CCCCCCCCC)CCN(CCCCCCCCC)CC(=O)N1CCN(C(=O)CN(CCCCCCCCC)CCCOC(=O)CCCCC)CC1 [Compound 56, 3-((2-(4-(N-(2-(Dinonylamino)ethyl)-N-nonylglycyl)piperazin-1-yl)-2-oxoethyl)(nonyl)amino)propyl Hexanoate] | 29 | 1.25 | 0.16% | –
CCCCCCCCCN(CCCCCCCC(=O)OC)CCC1CCN(C(=O)CN(CCCCCCCCC)CCN(CCCCCCCCC)CCCCCCCCC)CC1 [Compound 57, Methyl 8-((2-(1-(N-(2-(dinonylamino)ethyl)-N-nonylglycyl)piperidin-4-yl)ethyl)(nonyl)amino)octanoate] | 15 | 0.85 | 0.24% | % Dose Remaining 6 hr ([8]; 6 hr): 0.88%
CCCCCCCCCN(CCCCCCC(=O)OCC)CCC1CCN(C(=O)CN(CCCCCCCCC)CCN(CCCCCCCCC)CCCCCCCCC)CC1 [Compound 58, Ethyl 7-((2-(1-(N-(2-(dinonylamino)ethyl)-N-nonylglycyl)piperidin-4-yl)ethyl)(nonyl)amino)heptanoate] | 11 | 0.97 | 0.61% | –
CCCCCCCCCN(CCCOC(=O)CCCCC)CCC1CCN(C(=O)CN(CCCCCCCCC)CCN(CCCCCCCCC)CCCCCCCCC)CC1 [Compound 61, 3-((2-(1-(N-(2-(Dinonylamino)ethyl)-N-nonylglycyl)piperidin-4-yl)ethyl)(nonyl)amino)propyl Hexanoate] | 30 | 3.27 | 0.13% | –
CCCCCCCCCN(CCCCCCCCC)CCN(CCCCCCCCC)CC(=O)N1CCN(C(=O)CN(CCCC(=O)OCCCCC)CCCC(=O)OCCCCC)CC1 [Compound 72, Dipentyl 4,4′-((2-(4-(N-(2-(dinonylamino)ethyl)-N-nonylglycyl)piperazin-1-yl)-2-oxoethyl)azanediyl)dibutyrate] | 6 | 0.46 | 6.40% | –
